# Read-outs that look alike come from different tables or passages of the source.
# Experiments:
# A2780/AD cell line = type: cell-based, human
# Description: Cisplatin was used as a control and for comparative purposes. The IC50 values (μM) are for compounds 1-4 in A2780/AD cell line. Cisplatin controls and dimeric complexes previously reported are also shown for comparison:
# Experimental details for the in-vitro cell testing of compounds [Co(phen)2(H2P2O7)].4H2O (1.4H2O), [Ni(phen)2(H2P2O7)].8H2O (2.8H2O) and [Cu(phen)(H2O)(H2P2O7)]. For in vitro cell studies, all experiments were performed in a Labconco Purifier I laminar flow hood that had been disinfected with 70% ethanol and irradiated with UV light. The A2780/AD cell line that was used for testing was provided by the Fox Chase Cancer Center, Philadelphia (USA). Fetal bovine serum (FBS) was purchased from Hyclone. Penicillin-streptomycin solution with 10,000 units penicillin and 10 mg/mL streptomycin in 0.9% NaCl was obtained from Sigma. Gibco RPMI 1640 growth media that contained L-glutamine and phenol red was supplied by Invitrogen. Cellgro Cellstripper, a non-enzymatic cell dissociation solution, was obtained from Mediatech. Growth media were filtered with 0.22 μm filter (VWR). Cell Counting Kit 8 (CCK8) was purchased from Dojindo. Cells were incubated and grown in an incubator that was purchased from VWR. Optical densities of the cell cultures were measured at 450 nm with Thermo Multiskan EX that was equipped with Ascent software version 2.6.
# Cell lines and culture conditions. The A2780/AD cell line was cultured in BD Falcon 25 cm^2 surface area, canted neck flaks with vented cap (VWR) containing RPMI media supplemented with 10% FBS and 10% Penicillin-Streptomycin solution by volume. Subcultures were generated by incubating the cells with Cellstripper, and passing cells at a 1:10 culture ratio.
# Drug cytotoxicity. Cells used for studies were diluted to make either a solution of 50,000 cells/mL, used for the 72 h studies, or 80,000 cells/mL, used for the 6 and 24 h studies. 100 μL of the cell solution was added to the wells of a 96 well plate, and the cells were allowed to adhere overnight. The media was then removed from the 96 well plates and replaced with either 100 μL (for 6 h studies) or 200 μL (for 24 and 72 h studies) of media containing drug. Drug solutions were prepared by dissolving the drug in media (compounds 2, 4) or in a 25% methanol solution (compounds 1, 3). The solutions were filter sterilized and serially diluted 1:10. The concentration of methanol was kept below 5% for all concentrations studied. Cisplatin was prepared by dissolving in PBS and sonicating for 1 h to create a final concentration of 0.5 mg/mL (1.66 mM). Each drug was tested over 9 concentrations in triplicate with each point in done in triplicate. After the incubation period, the drug containing media was removed and replaced with 100 μL of media containing 10% CCK-8 solution by volume. The plates were incubated until the control reached 0.8-1.2 absorbance at 450 nm (2, 1.5 and 0.5 h for the 6, 24, 72 h runs respectively). The absorbance was measured at 450 nm via a plate reader. A blank was subtracted from all wells, and the results were plotted as a percentage compared to the control vs. concentration of drug. IC50 values were calculated by fitting the data using Prism Graphpad 5 using a nonlinear, dose response curve with a 4 variable fit. The reported ICso values are an average of at least 3 runs reported with standard deviation.
# [1] = tested on: adriamycin-resistant human ovarian cancer cell line (A2780/AD); assay: Proliferation colorimetric assay (WSK-8) of compounds 11-13 in A2780/AD; type: cell-based; settings: for toxicity in words: 24 and 72 h
# Description: Compounds 11, 12, and 13 were tested against the adriamycin-resistant human ovarian cancer cell line (A2780/AD) over a time period of 24 and 72 h (Table 8 below). Cisplatin was used as an external control. Adriamycin resistant ovarian cancer cell line (A2780/AD) were cultured as adherent monolayers in RPMI 1640 (Invitrogen) growth media containing L-glutamine and folic acid supplemented with 10,000 units penicillin, 10 mg/ml streptomycin (Sigma) and 10% (v/v) fetal bovine serum (Sigma). Cells were incubated and grown in a VWR mammalian incubator at 5% CO2 and 95% humidity. All preparations for cell culture and assays were conducted in a sterile environment under a Labconco Purifier I Laminar flow hood. Cells were cultured in Millipore 250 mL culture bottles with vented lids.
# The proliferation of the exponential phase cultures of A2780/AD were assessed by colorimetric assay. WSK-8 (Dojindo) was performed according to manufacturer's instruction. Adherent cell cultures were harvested by stripping of culture flask by a non-enzymatic cell stripper (Mediatech) after a 30 minute incubation period. The cells were then collected. The cell density was adjusted with the addition of RPMI 1640 media to 80,000 cells/mL for exponential growth for the period of drug exposure. To each well, aliquots of 100 μL were inoculated resulting in 8,000 cells per well. After a 24 h incubation time to facilitate adherence, the media was removed and replaced with 200 μl of fresh media containing different concentrations of compounds 11, 12, and 13. The cells were then incubated for 24 and 72 h. Optical densities were measured at 450 nm using a plate reader. The percentage of cell viability was determined relative to untreated control microcultures. The IC50 concentrations were calculated based on a sigmoidal (doseresponse) fit using OriginLabs 8 software with R^2 values ≧0.70 in all cases (average R^2 value 0.90). All experimental points were measured in triplicate and each experiment was performed at least three times on separate “batches” of synthesized compound. A2780/AD2O cells used were fewer than 12 passages for all testing.
# [2] = tested on: adriamycin-resistant human ovarian cancer cell line (A2780/AD); settings: dimeric complexes previously reported (Ref 3), cited from earlier work
# [3] = A2780/AD, 6 h exposure, read-out: IC50 6 h
# [4] = A2780/AD, 24 h exposure, read-out: IC50 24 h
# [5] = A2780/AD, 72 h exposure, read-out: IC50 72 h
# [6] = 24 h exposure, read-out: IC50 24 h
# [7] = 72 h exposure, read-out: IC50 72 h
Compound,IC50 (A2780/AD cell line) [µM],cytotoxic activity in words (A2780/AD cell line),IC50 (A2780/AD cell line; [3]) [µM],IC50 (A2780/AD cell line; [4]) [µM],IC50 (A2780/AD cell line; [5]) [µM],toxicity in words [1],"IC50 ([1]; 72 h, read-out: IC50 at 72 h) [µM]","IC50 [1, 6] [µM]","IC50 [1, 7] [µM]","IC50 ([2]; 24 h, read-out: IC50 24 h) [µM]","IC50 ([2]; 72 h, read-out: IC50 72 h) [µM]"
"O=P([O-])(O)OP(=O)([O-])O.[Co+2].c1cnc2c(c1)ccc1cccnc12.c1cnc2c(c1)ccc1cccnc12 [compound 1, [Co(phen)2(H2P2O7)].4H2O]",0.03 to 0.08,low nanomolar range,> 1000,5,0.03 ± 0.02,,,,,,
"O=P([O-])(O)OP(=O)([O-])O.[Ni+2].c1cnc2c(c1)ccc1cccnc12.c1cnc2c(c1)ccc1cccnc12 [compound 2, [Ni(phen)2(H2P2O7)].8H2O]",,little activity,> 1000,> 1000,630 ± 390,low nanomolar inhibitory concentrations,,,,,
"O.O=P([O-])(O)OP(=O)([O-])O.[Cu+2].c1cnc2c(c1)ccc1cccnc12 [compound 3, [Cu(phen)(H2O)(H2P2O7)]]",,low nanomolar range,14 ± 6,0.7,0.14 ± 0.05,,~0.000162,,,,
"O.O.O.O.O.O.O.O.O.O.O.O.O.O.O.O=P([O-])([O-])OP(=O)([O-])[O-].[Cu+2].[Na+].[Na+].c1cnc2c(c1)ccc1cccnc12 [compound 4, {[Cu(phen)(H2O)(P2O7)] [Na2(H2O)8]}.6H2O]",0.03 to 0.08,low nanomolar range,15 ± 6,0.6 ± 0.6,0.08 ± 0.03,,,,,,
"O=P([O-])([O-])OP(=O)([O-])[O-].[Ni+2].[Ni+2].c1cnc2c(c1)ccc1cccnc12.c1cnc2c(c1)ccc1cccnc12.c1cnc2c(c1)ccc1cccnc12.c1cnc2c(c1)ccc1cccnc12 [compound 11, {[Ni(phen)2]2(μ-P2O7)}.27H2O]",,,,,,low toxicity,,589 ± 31.6,304 ± 40.9,590,304
"O.O.O.O.O.O.O.O.O.O.O=P([O-])([O-])OP(=O)([O-])[O-].[Cu+2].[Cu+2].c1cnc2c(c1)ccc1cccnc12.c1cnc2c(c1)ccc1cccnc12 [compound 12, {[Cu(phen)(H2O)]2(μ-P2O7)}.8H2O]",,,,,,significant toxicity,,0.64 ± 0.12,,0.6,0.0018
"O=P([O-])([O-])OP(=O)([O-])[O-].[Co+2].[Co+2].c1cnc2c(c1)ccc1cccnc12.c1cnc2c(c1)ccc1cccnc12.c1cnc2c(c1)ccc1cccnc12.c1cnc2c(c1)ccc1cccnc12 [compound 13, {[Co(phen)2]2(μ-25 P2O7)}.6MeOH]",,,,,,significant toxicity,0.00016,2.01 ± 0.86,,2,0.00017
"cis-[Pt(NH3)2Cl2] [Cisplatin, reference compound]",,,> 160,200 ± 16,13 ± 5,,,84 ± 10.3,11 ± 1.5,,

# Reference: patent US20110092465A1, “MONOMERIC PYROPHOSPHATE COMPLEXES AND METHODS OF TREATMENT USING THE COMPLEXES” (SYRACUSE UNIVERSITY, priority 2009, published 2011)
